PMC10927086, “Effects of structurally distinct human HDAC6 and HDAC6/HDAC8 inhibitors against S. mansoni larval and adult worm stages” (PLOS Neglected Tropical Diseases, 2024)

Experiments:
[1] = test system: S. mansoni newly transformed schistosoma (NTS); test: ATP-based luminescence (CellTiter-GLO) viability assay on NTS; type: cell-based
Method: Fig 3 Schistosome viability assays. Panel A: Representative dose-response curves of the inhibitors on NTS. The y-axis indicates the percentage of viability normalized against DMSO (100%) and gambogic acid 10 μM (0%). […] Panel B: dose-response curve of the inhibitors on adult schistosome worm pairs. DMSO (vehicle) was used as negative control (100% viability), the indicated compounds were assayed at 5 (full triangle) 10 (inverted full triangle), 20 (full square) and 50 μM (full circle). Data are expressed as a % severity score (viability) relative to DMSO. Each point represents the average ± standard deviation of three independent experiments.

[2] = test system: tubulin of S. mansoni adult worm pairs; test: Western blot, tubulin acetylation in adult worm pairs; type: cell-based, Schistosoma mansoni; conditions: 48 h and 72 h, partially lethal and sub-lethal doses
Method: Ten adult pairs were treated with selected HDAC inhibitors for 48 h or 72 h at partially lethal and sublethal concentrations. Compound concentrations were selected based on the viability curve, Trichostatin A (TSA), a pan-HDAC inhibitor, and NF2503 a SmHDAC8 inhibitor chemically characterized by the presence of a hydroxamate-based MBG (metal binding group) coupled to a tricyclic thieno[3,2-b]indole core as capping group, previously described were used as positive controls in the experiments; DMSO (vehicle) was the negative control. Parasites were processed as previously described and samples were analyzed by 15% SDS-PAGE, and immunoblotting was performed using α-tubulin DM1A (1:5000), α-acetylated-lysine (1:4000) and α-acetylated tubulin (1:3000) antibodies. A Chemidoc XRS Bio-Rad with a chemiluminescent camera and Bio-Rad ImageLab 4.0 software were used for the acquisition and analysis of images. Each Western blot analysis was calibrated by Ponceau staining.
TSA, a known pan- class I and class II HDAC -inhibitor, and NF2503, a HDAC inhibitor previously shown to impact histone acetylation in adult worm pairs were used as positive controls.
Fig 6 Effects of selected compounds on histones and tubulin acetylation. […]

SmHDAC8 = molecular target: T1, SmHDAC8 (Schistosoma mansoni, UniProt A5H660); test: Recombinant SmHDAC8 inhibition assay (Fluor de Lys); type: biochemical; conditions: Fluor-de-Lys substrate 50 μM, inhibitor 25-0.04 μM, average of three experiments ± SD
T1 construct: made in house; host or cells: E. coli
T1 sequence (A5H660 1-440): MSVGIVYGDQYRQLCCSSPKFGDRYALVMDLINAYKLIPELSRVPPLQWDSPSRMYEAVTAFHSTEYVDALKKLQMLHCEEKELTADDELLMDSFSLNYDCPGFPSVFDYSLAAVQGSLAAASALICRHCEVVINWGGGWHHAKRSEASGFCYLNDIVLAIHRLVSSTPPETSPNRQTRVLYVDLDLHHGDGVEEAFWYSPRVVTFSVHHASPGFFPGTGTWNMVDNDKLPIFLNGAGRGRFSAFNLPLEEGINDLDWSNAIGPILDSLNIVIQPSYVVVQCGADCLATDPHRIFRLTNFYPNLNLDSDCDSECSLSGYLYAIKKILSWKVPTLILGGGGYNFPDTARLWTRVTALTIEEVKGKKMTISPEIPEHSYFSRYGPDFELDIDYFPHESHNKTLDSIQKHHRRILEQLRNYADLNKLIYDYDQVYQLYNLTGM
Method: SmHDAC8 protein was produced and purified by a method previously described by us. Inhibition assays of SmHDAC8 were performed as already described in previous publications. Briefly, the commercial Fluor de Lys kit (BML-KI178) of Enzo Life Science was used for testing the residual activity of the recombinant enzyme upon preincubation with each of the selected compounds. First the enzyme was preincubated with the selected compounds 15 min before substrate addition to the mixture. The Fluor de Lys substrate was used at 50 μM. Then, compounds, substrate, and enzyme were incubated together, and the reaction was allowed to proceed for 1 h at 30°C; subsequently, 2 μM TSA within 50 μL of 1× Developer II was added, and the mixture was further incubated for 1 h at 30°C to quench the reaction. Fluorescence was measured in a plate reader (Varioskan Lux, Thermo Fisher Scientific) with excitation at λ = 370 nm and emission at λ = 450 nm.

[3] = MTT cytotoxicity assay on L929 fibroblasts; type: cell-based, murine; conditions: mouse, L929 (NCTC clone 929) fibroblast cells, compounds 100-0.78 μM, GA 10-0.078 μM, 2 independent experiments
Method: The NCTC clone 929 (L-929) murine fibroblast isolated from subcutaneous connective tissue (ATCC-CCL-1) were cultured in Dulbecco’s Modified Eagle Medium (DMEM) supplemented with 10 mM Hepes (pH 6.98–7.30), 1 mM l-glutamine, 100 U/ml of penicillin/streptomycin (BioWhittaker, Lonza, EuroClone SpA), and heat-inactivated 10% FBS. All cells were cultured at 37°C in a 5% CO2 humidified incubator.
The MTT method was employed as previously described to determine the viability of fibroblast cell lines. Briefly, cells seeded into 96-well plates at a density of 20,000 cells/well after overnight incubation, were exposed to selected compounds at the indicated concentrations for 24–72 h. Next they were gently washed, incubated with MTT (bromuro di 3-(4,5-dimetiltiazol-2-il)-2,5-diphenyltetrazolium) for 4 h, and processed for color detection with DMSO. The resulting purple solution was spectrophotometrically measured at 570 nm using a Varioskan Lux instrument and Skanit software (Thermo Fisher Scientific).
The optical density values for both assays were expressed as a percentage of cell survival and normalized with the value of cells treated with vehicle (DMSO), and the data were analyzed using GraphPad Prism v9.5.1 software (San Diego, CA, USA).
The cytotoxicity of the hit compounds was assessed in two independent experiments on murine L929 and human BJ fibroblasts at 24 h by MTT assays. Vehicle (DMSO) and Gambogic acid (GA) were used as negative and positive control respectively. The compounds show a safe profile on both cell lines (S2 Table).
The IC50(μM) shown was calculated by dose-response curves of the compounds on murine L929 and human BJ fibroblast cells. […] The data are representative of 2 independent experiments. Gambogic acid (GA) and vehicle (DMSO) were used as positive and negative controls respectively. (DOCX)

hHDAC6 = conditions: recombinant enzyme, previously reported; ref [25]; cited from earlier work
hHDAC8 = conditions: recombinant enzyme, previously reported; ref [25]; cited from earlier work
Caco-2 cell = test system: Caco-2 cell; design: method as in earlier work; conditions: QikProp; >500 great; ref [25]; cited from earlier work

Structure (SMILES) | LD50 on NTS, average +/- SD ([1]; 72 h, 0.7-100 μM, three experiments) [µM] | tubulin acetylation vs vehicle (DMSO) [2] | IC50 (SmHDAC8) [nM] | IC50 at 24 h [3] [nM] | IC50 (hHDAC6) [nM] | IC50 (hHDAC8) [nM] | QPPCaco predicted apparent Caco-2 cell permeability (Caco-2 cell) [×10⁻⁶ cm/s] | Normalization: NTS viability normalized against DMSO (100%) and GA (0%) ([1]; log conc. (µM) 1.4, 72 h, single wells) [%]
Cn1c(=O)c(OCc2ccc(C(=O)NO)cc2)c(C2CCCCC2)c2ccccc21 [NF2836] | 31.2 ± 11.3 | highest increase in tubulin acetylation | 2300 ± 800 | > 100000 | 33 ± 2.6 | 1600 ± 300 | 26.454 | –
CCN(CC)Cc1ccc(Cn2c(=O)c(OCc3ccc(C(=O)NO)cc3)c(-c3cccnc3)c3ccccc32)cc1 [NF2838] | – | increased acetylation | 400 ± 30 | 64000 to 100000 | 11.5 ± 1.5 | 500 ± 200 | 5.607 | 107.9
